Data on two molecules can be found in ChEMBL document CHEMBL4364356, “Deuteration of BTZ043 Extends the Lifetime of Meisenheimer Intermediates to the Antituberculosis Nitroso Oxidation State” (ACS Med Chem Lett, 2019).

Activity calls are given as the source filed them. No cut-off for these calls is given here.

The nature of data set [1]: Prodrug conversion in THF/MeOH solution assessed as first order rate constant for protonated/deuterated metabolite (6HD) formation at 0.01 mmol treated with NaBH4 by UV-visible spectroscopic analysis. It is filed as ADME.
A short description of data set [2]: Prodrug conversion in THF/MeOH solution assessed as first order rate constant for deuterated metabolite (6D2) formation at 0.01 mmol treated with NaBD4 by UV-visible spectroscopic analysis. It is filed as ADME.
In data set [3] the target is T1, Decaprenylphosphoryl-beta-D-ribose oxidase (Mycobacterium tuberculosis (strain ATCC 25618 / H37Rv)) (UniProt P9WJF1).
T1 sequence (whole entry): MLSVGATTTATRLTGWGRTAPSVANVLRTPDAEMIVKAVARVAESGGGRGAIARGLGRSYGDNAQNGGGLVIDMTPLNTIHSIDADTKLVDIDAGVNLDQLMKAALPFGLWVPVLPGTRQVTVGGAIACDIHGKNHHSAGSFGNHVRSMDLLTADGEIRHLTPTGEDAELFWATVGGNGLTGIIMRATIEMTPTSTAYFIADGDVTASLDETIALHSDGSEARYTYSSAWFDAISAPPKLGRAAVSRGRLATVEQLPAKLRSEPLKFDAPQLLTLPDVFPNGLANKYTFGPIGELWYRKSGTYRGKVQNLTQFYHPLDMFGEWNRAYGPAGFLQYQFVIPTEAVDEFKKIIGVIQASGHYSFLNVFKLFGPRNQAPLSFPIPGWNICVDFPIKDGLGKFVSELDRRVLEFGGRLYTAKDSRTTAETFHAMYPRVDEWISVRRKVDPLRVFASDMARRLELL
The data set is described as follows: Inhibition of DprE1 in Mycobacterium tuberculosis H37Rv assessed as reduction in bacterial growth at 0.02 to 0.03 uM measured in GAS medium.

A short description of data set [4]: Drug recovery in THF/MeOH solution measured after 3 days by 1H-NMR analysis. To be noted: tested as the 2H-labelled form.
The nature of data set [5]: Prodrug conversion in THF/MeOH solution assessed as first order rate constant for protonated metabolite (6H2) formation at 0.01 mmol treated with NaBH4 by UV-visible spectroscopic analysis. It is filed as ADME.
For data set [6], the target named is T1, Decaprenylphosphoryl-beta-D-ribose oxidase (Mycobacterium tuberculosis (strain ATCC 25618 / H37Rv)). Nature of the data set: Inhibition of DprE1 in Mycobacterium tuberculosis H37Rv assessed as reduction in bacterial growth at <0.004 uM measured in MABA media.

Regarding `[2H]c1c(C(F)(F)F)c([2H])c2c(=O)nc(N3CCC4(CC3)OC[C@H](C)O4)sc2c1[N+](=O)[O-]`, the K in data set [1] came out at 2.8 ×10⁻⁵ /s; in data set [2] it was 1.2 ×10⁻⁵ /s.
With `C[C@H]1COC2(CCN(c3nc(=O)c4cc(C(F)(F)F)cc([N+](=O)[O-])c4s3)CC2)O1` [BTZ-043], the inhibition entry in data set [3], in data set [3] (tested as the 2H-labelled form), in data set [6] and in data set [6] (tested as the 2H-labelled form) was “Active” in each case. The same molecule gave a Drug recovery in data set [4] of 95%. In data set [5], the K is recorded as 5.6 ×10⁻⁵ /s.
